Entries after “also recorded” stand apart in the source; their conditions may differ. Like-named read-outs stand apart in the source and are kept apart here.
How the values were obtained:
[1] = test system: neuroblastoma N1E-115 cells; test: Growth and morphological differentiation of mouse neuroblastoma N1E-115 cells; conditions: for range of effective concentrations that inhibited cell proliferation and induced morphological differentiation / effects on cell appearance: N1E-115 cells; for range of effective concentrations that inhibited cell proliferation and induced morphological differentiation: below range no noticeable effect, above range cytotoxic; for effects on cell appearance: morphology; for most effective concentration for the cells tested: summary, cells tested in the present invention; for effects on cell growth and differentiation / effect on cell division and morphological differentiation / long-term effect on cell division: single application; for effect on cell division and morphological differentiation: 3 days; for long-term effect on cell division: 6 days
Experimental: A,B: Untreated cells, 3 (A) and 8 (B) days after subculture. C,D: Cells grown for 3 (C) and 8 (D) days with 12.8 μM Debromoshermilamine. E,F: Cells grown for 7 days with Isosegoline A (39 μM) and Norsegoline (16.3 μM), respectively.
A,B: Untreated cells 3 (A) and 6 (B) days after subculture. C,D: Cells grown for 3 (C) and 6 (D) days with 50 μM forskolin. E,F: Cells grown for 3 (E) and 6 (F) days with 39 μM Segoline A. G,H: Cells grown for 3 (G) and 6 (H) days with 0.14 μM Eilatin.
Cells were grown for six days in the absence of drugs (A), or in the presence of: 10 μM 4-methylpyrido[2,3,4-kl]acridine (B), 4 μM pyrido[2,3,4-kl]acridine (C), 0.08 μM Eilatin (D), 75 μM forskolin (E).
The inventors chose the neuroblastoma N1E-115 cells because these tumor-derived cells can be induced to express characteristic neuronal properties by a variety of procedures see Spector, "Electrophysiology of clonal nerve cell lines. In: Excitable Cells in Tissue Culture", Nelson et al. eds., Plenum, New York 247-277 (1981) and can serve as a useful experimental system in which to explore the effects of the Eudistoma alkaloids on the biological properties of both cancer cells and neuronal cells.
The N1E-115 cells were exposed to various concentrations of the six (6) natural products shown in FIG. 1, and of the two synthetic pyridoacridines shown in Scheme III of FIG. 2. […] A,B: Untreated cells, 3 (A) and 8 (B) days after subculture. C,D: Cells grown for 3 (C) and (8) days with 12.8 μM Debromoshermilamine. E,F: Cells grown for 7 days with Isosegoline A (39 μM) and Norsegoline (16.3 μM), respectively. FIG. 5 illustrates the appearance of N1E-115 cells 6 days after replating in the absence (A) and in the presence of 10 μM 4-methylpyrido[2,3,4-kl]acridine (B), or 4 μM pyrido[2,3,4-kl]acridine.

[2] = test system: normal hamster fibroblast NIL8 cell line; test: Growth and morphology of normal NIL8 fibroblast cells; format: cell-based; conditions: single application
[3] = test system: type II cAMP-dependent protein kinase; conditions: literature; cited from earlier work
pyruvate kinase = test: Pyruvate kinase activity in cultured rat hepatoma FAO cells; format: cell-based; conditions: for Km: control 0.14, read-out: Km for the substrate phosphoenolpyruvate (PEP)
Experimental: FIG. 11 is a graph showing the effects of the Eudistoma alkaloids on pyruvate kinase activity in cultured rat hepatoma FAO cells. Enzyme activity v/Vmax was assayed as described in Example IV in partially purified extracts from cells incubated for 1 h in the absence ( ) or presence of 100 μM CPT-cAMP (.cndot.) and 26 μM segoline A ( ) as a function of substrate concentrations (phosphoenolpyruvate, PEP).
1. Activity of pyruvate kinase--a key glycolytic enzyme whose activity is inhibited by cAMP-dependent phosphorylation.
FIG. 11 is a graph showing the effects of the Eudistoma alkaloids on pyruvate kinase activity in cultured rat hepatoma FAO cells. Enzyme activity v/Vmax was assayed in partially purified extracts from cells incubated for 1 h in the absence (squares) or presence of 100 μM 8-(4-chlorophenylthio) cyclic AMP (CPT-cAMP)-CPT-cAMP (circles) and 26 μM Segoline A (triangles) as a function of substrate concentrations (phosphoenolpyruvate, PEP).

[4] = test system: normal hamster fibroblast NIL8 cell line; test: Growth and morphology of normal NIL8 fibroblast cells; format: cell-based
Experimental: Cells were grown for 5 days in the absence of drugs (A), and in the presence of 25 μM forskolin (B), 1.4 μM Eilatin (C), or 12.8 μM Debromoshermilamine (D). […]
As illustrated, a single application of 1.4 μM Eilatin or 12.8 μM Debromoshermilamine to NIL8 cells produced effects which are strikingly similar to those obtained by chronically treating time cells with agents that elevate or mimic cAMP. […] This predilection towards cancer cells is a very desirable property in developing potential drugs for the treatment of cancer.

NIL8-HSV cells = test system: NIL8-HSV cells
Experimental: A-D Cells grown for 6 days in the absence of drugs (A), or in the presence of 75 μM forskolin (B), 13 μM Segoline B (C) or 0.21 μM Eilatin (D). E and F show the appearance of the Segoline B- and Eilatin-treated cells, 7 days after removal of the toxins.
A: F-actin staining in control cells. B: F-actin staining in a cell treated for 4 days with 13 μM Segoline B.
Cells were grown for 6 days in the absence of drugs (A), or in the presence of 10 μM 4-methylpyrido[2,3,4-kl]acridine (B), 4 μM pyrido[2,3,4-kl]acridine (C), 0.08 μM eilatin (D), or 75 μM forskolin (E).
As reviewed by Willingham, Int. Rev. […] Transformed fibroblasts which display altered growth patterns and aberrant morphologies respond to cAMP elevation by restoration of many normal aspects of growth and morphology, a phenomenon known as "cAMP-mediated reverse transformation" as described by Lockwood et al., J. Cell. Biochem., 33, 237-255 (1987).
A-D show cells grown for 6 days in the absence of drugs (A), or in the presence of 75 μM forskolin (B), 13 μM Segoline B (C) or 0.21 μM Eilatin (D). E and F show the appearance of the Segoline B- and Eilatin-treated cells, 7 days after removal of the toxins.
A: F-actin staining in control cells.

[5] = 1.4 μM Eilatin, 5 days, single application

Compound: COc1cc2c3c4c(ccnc14)-c1ccccc1N3C(C)C1(C)C(=O)NC(=O)C21 (single isomer, unassigned) [Isosegoline A]
- range of effective concentrations that inhibited cell proliferation and induced morphological differentiation [1]: 12-52 μM
- effects on cell appearance [1]: flattened cell bodies as well as numerous long neurites
- most effective concentration for the cells tested [1]: 12 to 52 µM

Compound: Cc1ccc2c3c(ccnc13)-c1ccccc1N2 [4-methylpyrido[2,3,4-kl]acridine]
- range of effective concentrations that inhibited cell proliferation and induced morphological differentiation [1]: 7.5-12.5 μM
- effects on cell appearance [1]: most neurites were short
- most effective concentration for the cells tested [1]: 7.5 to 12.5 µM
- effect on NIL8 cells ([2]; 10 μM 4-methylpyrido[2,3,4-kl]acridine, 6 days): effects which were similar to those produced by the natural alkaloids

Compound: Nc1ncnc2c1nc(Cl)n2[C@@H]1O[C@@H]2COP(=O)(O)O[C@H]2[C@H]1O [8-chloro-cAMP, reference compound]
- effects on cell growth and differentiation ([1]; 8-chloro cAMP 250 μM): transient effects
- preferential binding to type II cAMP-dependent protein kinase [3]: bind preferentially to type II cAMP-dependent protein kinase

Compound: Nc1ncnc2c1nc(Sc1ccc(Cl)cc1)n2[C@@H]1O[C@@H]2COP(=O)(O)O[C@H]2[C@H]1O [CPT-cAMP, 8-(4-chlorophenylthio) cyclic AMP, reference compound]
- effects on cell growth and differentiation ([1]; CPT-cAMP 250-500 μM): transient effects
- preferential binding to type II cAMP-dependent protein kinase [3]: bind preferentially to type II cAMP-dependent protein kinase
- Km (pyruvate kinase; 100 μM CPT-cAMP, 1 h): 520 µM

Compound: c1ccc2c(c1)nc1c3nc4ccccc4c4ccnc(c5nccc2c51)c43 [Eilatin]
- differentiation in N1E-115 cells ([1]; 0.08 μM Eilatin): produced differentiation in N1E-115 cells
- effect on cell division and morphological differentiation ([1]; 0.14 μM Eilatin): inhibited cell division and induced morphological differentiation
- long-term effect on cell division ([1]; 0.14 μM Eilatin): cell division is completely blocked
- toxicity to transformed cells ([1]; 1.4 μM Eilatin, N1E-115 ("both the transformed cell lines")): toxic to both the transformed cell lines
- range of effective concentrations that inhibited cell proliferation and induced morphological differentiation [1]: 0.05-0.5 μM
- effects on cell appearance [1]: flattened cell bodies as well as numerous long neurites
- potency relative to the other five naturally occurring compounds and the synthetic pyridoacridines ([1]; actions at the cellular level): 100 times
- most effective concentration for the cells tested [1]: 0.05 to 0.5 µM
- effect on cell shape of NIL8 cells [4, 5]: more elongated
- effect on growth of NIL8 cells [4, 5]: growth was inhibited
- effect on normal cells ([4]; at concentrations that induce differentiation and reverse transformation of transformed cells): no effect on normal cells
- cytotoxicity to transformed cells versus normal cells (NIL8-HSV cells): more cytotoxic to transformed cells than to normal cells
- reverse transformation in NIL8-HSV cells (NIL8-HSV cells; 0.08 μM Eilatin): reverse transformation in NIL8-HSV cells
- reversal of the effects of transformation (NIL8-HSV cells; 0.21 μM Eilatin, one application): permanently reverse the effects of transformation
- effects on cell shape and actin organization (NIL8-HSV cells; 0.21 μM Eilatin, FIG. 8D): became large and flat and showed the typical network of stress fibers
- growth and morphology after drug removal (NIL8-HSV cells; 7 days after removal of 0.21 μM Eilatin): maintained their reduced growth and flattened morphology
- effect on NIL8 cells ([2]; 0.08 μM Eilatin): no effects on NIL8 cells; also recorded: did not exert any effect on the normal NIL8 cells

Compound: COC(=O)c1cc(OC)c2nccc3c2c1Nc1ccccc1-3 [Norsegoline]
- range of effective concentrations that inhibited cell proliferation and induced morphological differentiation [1]: 8-40 μM
- effects on cell appearance [1]: relatively small cell bodies and numerous long neurites
- most effective concentration for the cells tested [1]: 8 to 40 µM
- Km (pyruvate kinase; concentration of alkaloid not given): 400 µM
- inhibition of pyruvate kinase activity (pyruvate kinase; submaximal substrate concentrations): inhibit pyruvate kinase activity
- rise in the Km for substrate (phosphoenolpyruvate) (pyruvate kinase; versus control): ca. 3 fold

Compound: COc1cc2c3c4c(ccnc14)-c1ccccc1N3C1(C)C(=O)NC(=O)C2C1C (centres unmarked) [Segoline B]
- reversal of the effects of transformation (NIL8-HSV cells; 13 μM Segoline B, one application): permanently reverse the effects of transformation
- effects on cell shape and actin organization (NIL8-HSV cells; 13 μM Segoline B, FIGS. 8C, 9B): became large and flat and showed the typical network of stress fibers
- growth and morphology after drug removal (NIL8-HSV cells; 7 days after removal of 13 μM Segoline B): maintained their reduced growth and flattened morphology

Compound: C=C[C@@]1(C)CC(=O)[C@]2(O)[C@@]3(C)[C@@H](O)CCC(C)(C)[C@@H]3[C@H](O)[C@H](OC(C)=O)[C@@]2(C)O1 [forskolin, reference compound]
- effect on cell division and morphological differentiation ([1]; 50 μM forskolin): inhibited cell division and induced morphological differentiation
- long-term effect on cell division ([1]; 50 μM forskolin): became confluent like the control cells
- effect on NIL8 cells ([4]; 25 μM forskolin, 5 days, single application): the cells reached the high saturation densities typical of untreated cultures
- long-term effect on transformed phenotype (NIL8-HSV cells; 75 μM forskolin, 6 days (FIG. 8B)): reverted to the transformed phenotype
- reversal of the effects of transformation (NIL8-HSV cells; forskolin 50-100 μM, single application, data not shown): transiently reverse the effects of transformation

Compound: c1ccc2c(c1)Nc1cccc3nccc-2c13 [pyrido[2,3,4-kl]acridine]
- range of effective concentrations that inhibited cell proliferation and induced morphological differentiation [1]: 2-5 μM
- effects on cell appearance [1]: flattened cell bodies as well as numerous long neurites
- most effective concentration for the cells tested [1]: 2 to 5 µM
- effect on NIL8 cells ([2]; 4 μM pyrido[2,3,4-kl]acridine, 6 days): effects which were similar to those produced by the natural alkaloids
